The subject of the experiment is CD2F1 mice, L1210 leukemia ip, survival T/C. Description: NCI In Vivo Anticancer Drug Screen. Data for tumor model L1210 Leukemia (intraperitoneal) in CD2F1 (CDF1) mice. To be noted: higher = longer survival. The method, boiled down: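 Vehicle-treated tumor-bearing mice served as controls (C) for compound-treated mice (T). Reported figure is T divided by C.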
The mark [1] stands for this setting: endpoint: mean survival time, dose: 100.0 mg/kg/injection, schedule: Q04DX003 (ip), vehicle: saline with Tween-80.
Setting [2] is: endpoint: mean survival time, dose: 200.0 mg/kg/injection, schedule: Q04DX003 (ip), vehicle: saline with Tween-80.
The mark [3] stands for this setting: endpoint: mean survival time, dose: 100.0 mg/kg/injection, schedule: Q01DX009 (ip), vehicle: saline with Tween-80.
[4] abbreviates: endpoint: mean survival time, dose: 50.0 mg/kg/injection, schedule: Q01DX009 (ip), vehicle: saline with Tween-80.
Where [5] appears, read: endpoint: mean survival time, dose: 100.0 mg/kg/injection, schedule: Q01DX001 (ip), vehicle: saline with Tween-80.
[6] abbreviates: endpoint: mean survival time, dose: 200.0 mg/kg/injection, schedule: Q01DX001 (ip), vehicle: saline with Tween-80.
Setting [7] is: endpoint: mean survival time, dose: 200.0 mg/kg/injection, schedule: Q01DX009 (ip), vehicle: saline with Tween-80.
Where [8] appears, read: endpoint: mean survival time, dose: 400.0 mg/kg/injection, schedule: Q04DX003 (ip), vehicle: saline with Tween-80.

The structures appear in SMILES notation. Inconclusive results and toxic doses are left out.

Turning to `Nc1nc(F)nc2c1ncn2C1CC(O)C(CO)O1` (stereo not drawn), the T/C (endpoint: mean survival time, dose: 75.0 mg/kg/injection, schedule: Q01DX001 (ip), vehicle: saline) is 105 % of control; the T/C (endpoint: mean survival time, dose: 100.0 mg/kg/injection, schedule: Q01DX001 (ip), vehicle: other) was 113 % of control; the T/C (endpoint: mean survival time, dose: 150.0 mg/kg/injection, schedule: Q01DX001 (ip), vehicle: saline) was 109 % of control; the T/C (endpoint: mean survival time, dose: 200.0 mg/kg/injection, schedule: Q01DX001 (ip), vehicle: other) is 110 % of control; the T/C (endpoint: mean survival time, dose: 400.0 mg/kg/injection, schedule: Q01DX001 (ip), vehicle: other) is 107 % of control; the T/C (endpoint: median survival time, dose: 25.0 mg/kg/injection, schedule: Q03HX024 (ip), vehicle: saline with Tween-80) is 219 % of control. The T/C is 234 % of control (endpoint: median survival time, dose: 30.0 mg/kg/injection, schedule: Q03HX024 (ip), vehicle: saline with Tween-80); 211 % of control (endpoint: median survival time, dose: 30.0 mg/kg/injection, schedule: Q03HX024 (ip), vehicle: saline); 250 % of control (endpoint: median survival time, dose: 35.0 mg/kg/injection, schedule: Q03HX024 (ip), vehicle: saline with Tween-80); 158 % of control (endpoint: median survival time, dose: 40.0 mg/kg/injection, schedule: Q03HX024 (ip), vehicle: saline with Tween-80); 227 % of control (endpoint: median survival time, dose: 40.0 mg/kg/injection, schedule: Q03HX024 (ip), vehicle: saline).

On to `CC(/C=N/N(C)C)=N/[N+](C)(C)C`, for which the T/C is, setting by setting: (endpoint: mean survival time, dose: 50.0 mg/kg/injection, schedule: Q01DX009 (ip), vehicle: saline) 101 % of control; (endpoint: mean survival time, dose: 100.0 mg/kg/injection, schedule: Q01DX009 (ip), vehicle: saline) 101 % of control.

For `Cc1c(N=Nc2ccc(N(C)C)cc2)cc[n+]([O-])c1C`, the T/C under setting [1] was 102 % of control and the T/C under setting [2] is 110 % of control.

Take `BrCc1cccc2cccnc12`: the T/C reads like this: under setting [3], 88 % of control; (endpoint: median survival time, dose: 50.0 mg/kg/injection, schedule: Q04DX003 (ip), vehicle: saline with Tween-80) 88 % of control; (endpoint: median survival time, dose: 100.0 mg/kg/injection, schedule: Q04DX003 (ip), vehicle: saline with Tween-80) 88 % of control.

`CCCC(=O)OCC1OC(n2ccc(O)cc2=O)C(O)C1O` (stereo not drawn): the T/C was 171 % of control (endpoint: median survival time, dose: 44.0 mg/kg/injection, schedule: Q01DX009 (ip), vehicle: saline + Tween-80 + alcohol); 174 % of control (endpoint: median survival time, dose: 67.0 mg/kg/injection, schedule: Q01DX009 (ip), vehicle: saline + Tween-80 + alcohol); 168 % of control (endpoint: median survival time, dose: 100.0 mg/kg/injection, schedule: Q01DX009 (ip), vehicle: saline + Tween-80 + alcohol); 162 % of control (endpoint: median survival time, dose: 150.0 mg/kg/injection, schedule: Q01DX009 (ip), vehicle: saline + Tween-80 + alcohol).

In the case of `CS(=O)(=O)c1nnc(S(C)(=O)=O)s1`, the T/C is 104 % of control (endpoint: mean survival time, dose: 3.0 mg/kg/injection, schedule: Q01DX009 (ip), vehicle: saline sonified); 102 % of control (endpoint: mean survival time, dose: 6.0 mg/kg/injection, schedule: Q01DX009 (ip), vehicle: saline sonified); 113 % of control (endpoint: mean survival time, dose: 12.0 mg/kg/injection, schedule: Q01DX009 (ip), vehicle: saline sonified); 104 % of control (endpoint: mean survival time, dose: 12.5 mg/kg/injection, schedule: Q04DX003 (ip), vehicle: saline sonified).

On to `Cc1[nH]nc(C(N)=O)c1N=NN1CCOCC1`, for which the T/C was 101 % of control (endpoint: mean survival time, dose: 75.0 mg/kg/injection, schedule: Q01DX001 (ip), vehicle: other); 106 % of control (endpoint: mean survival time, dose: 150.0 mg/kg/injection, schedule: Q01DX001 (ip), vehicle: other); 109 % of control (endpoint: mean survival time, dose: 300.0 mg/kg/injection, schedule: Q01DX001 (ip), vehicle: other).

On to `CN(C)c1ccc(-c2cc(C(=O)O)c3cc(I)ccc3n2)c(Cl)c1`, for which the T/C by setting is: (endpoint: mean survival time, dose: 75.0 mg/kg/injection, schedule: Q01DX009 (ip), vehicle: saline) 100 % of control; (endpoint: mean survival time, dose: 75.0 mg/kg/injection, schedule: Q04DX003 (ip), vehicle: saline) 92 % of control; (endpoint: mean survival time, dose: 150.0 mg/kg/injection, schedule: Q01DX009 (ip), vehicle: saline) 94 % of control; (endpoint: mean survival time, dose: 150.0 mg/kg/injection, schedule: Q04DX003 (ip), vehicle: saline) 93 % of control; (endpoint: mean survival time, dose: 300.0 mg/kg/injection, schedule: Q01DX009 (ip), vehicle: saline) 98 % of control; (endpoint: mean survival time, dose: 300.0 mg/kg/injection, schedule: Q04DX003 (ip), vehicle: saline) 110 % of control.

For `c1ccc(-c2cc(-c3cc(-c4ccccc4)on3)no2)cc1`, the T/C was 91 % of control under setting [4]; 101 % of control under setting [5]; 94 % of control under setting [3]; 100 % of control under setting [6]; 96 % of control under setting [7].

For the compound `CC12CCC(OC3CCCCO3)CC1=CCC1C2CCC2(C)C1CCC2(O)CCN` (stereo not drawn), the T/C is 100 % of control (endpoint: mean survival time, dose: 6.25 mg/kg/injection, schedule: Q01DX005 (ip), vehicle: other); 97 % of control (endpoint: mean survival time, dose: 12.5 mg/kg/injection, schedule: Q01DX005 (ip), vehicle: other); 104 % of control (endpoint: mean survival time, dose: 15.6 mg/kg/injection, schedule: Q01DX001 (ip), vehicle: Klucel (hydroxypropylcellulose) (HPC)); 96 % of control (endpoint: mean survival time, dose: 31.2 mg/kg/injection, schedule: Q01DX001 (ip), vehicle: Klucel (hydroxypropylcellulose) (HPC)); 98 % of control (endpoint: mean survival time, dose: 62.5 mg/kg/injection, schedule: Q01DX001 (ip), vehicle: Klucel (hydroxypropylcellulose) (HPC)).

With `CC[S-].CC[S-].[Ni+2]`, the T/C is, setting by setting: (endpoint: mean survival time, dose: 5.0 mg/kg/injection, schedule: Q01DX001 (ip), vehicle: saline) 103 % of control; (endpoint: mean survival time, dose: 10.0 mg/kg/injection, schedule: Q01DX001 (ip), vehicle: saline) 103 % of control; (endpoint: mean survival time, dose: 20.0 mg/kg/injection, schedule: Q01DX001 (ip), vehicle: saline) 103 % of control.

Turning to `CC(C)(O)C#CC#CC(C)(C)O`, the T/C is 102 % of control under setting [5] and 96 % of control under setting [6].

For `CC(C)(C)OC(=O)N1CCCC1C(=O)O` (stereo not drawn), the T/C is, setting by setting: under setting [1], 96 % of control; under setting [2], 101 % of control; under setting [8], 110 % of control.

In the case of `CN(C)CCOc1ccccc1Cc1ccccc1`, the T/C reads like this: under setting [4], 104 % of control; under setting [3], 119 % of control; under setting [1], 98 % of control; under setting [7], 107 % of control; under setting [2], 97 % of control.

Turning to `O=S(=O)(Nc1ccc(O)c(Cl)c1)c1ccccc1`, the T/C by setting is: under setting [1], 98 % of control; under setting [2], 97 % of control; under setting [8], 110 % of control.

For the compound `CCCCN(CCCC)C(=S)Nc1ccccc1`, the T/C runs as follows: under setting [4], 96 % of control; under setting [5], 107 % of control; under setting [3], 96 % of control; under setting [6], 102 % of control; under setting [7], 86 % of control; (endpoint: mean survival time, dose: 400.0 mg/kg/injection, schedule: Q01DX001 (ip), vehicle: saline with Tween-80) 96 % of control.

Take `COC(=O)c1ccc(Cl)nc1`: the T/C (endpoint: mean survival time, dose: 75.0 mg/kg/injection, schedule: Q04DX003 (ip), vehicle: saline with Tween-80) is 106 % of control; the T/C under setting [3] is 98 % of control; the T/C (endpoint: mean survival time, dose: 150.0 mg/kg/injection, schedule: Q04DX003 (ip), vehicle: saline with Tween-80) is 106 % of control; the T/C under setting [7] is 97 % of control; the T/C (endpoint: mean survival time, dose: 300.0 mg/kg/injection, schedule: Q04DX003 (ip), vehicle: saline with Tween-80) was 100 % of control; the T/C (endpoint: mean survival time, dose: 400.0 mg/kg/injection, schedule: Q01DX009 (ip), vehicle: saline with Tween-80) was 87 % of control.

As to `O=C(N/N=C\c1cc(Cl)ccc1[N+](=O)[O-])c1ccccc1`, the T/C is 100 % of control (endpoint: mean survival time, dose: 100.0 mg/kg/injection, schedule: Q01DX009 (ip), vehicle: Klucel (hydroxypropylcellulose) (HPC)); 91 % of control (endpoint: mean survival time, dose: 200.0 mg/kg/injection, schedule: Q01DX009 (ip), vehicle: Klucel (hydroxypropylcellulose) (HPC)); 94 % of control (endpoint: mean survival time, dose: 400.0 mg/kg/injection, schedule: Q01DX009 (ip), vehicle: Klucel (hydroxypropylcellulose) (HPC)).

Take `CCOC(=O)C(C)C1(O)CCCCC1` (stereo not drawn): the T/C runs as follows: under setting [1], 101 % of control; under setting [2], 101 % of control; under setting [8], 92 % of control.

As to `CCCCCNc1ncnc2c(C)[nH]nc12`, the T/C by setting is: (endpoint: median survival time, dose: 25.0 mg/kg/injection, schedule: Q01DX009 (ip), vehicle: Klucel (hydroxypropylcellulose) (HPC)) 101 % of control; (endpoint: median survival time, dose: 50.0 mg/kg/injection, schedule: Q01DX009 (ip), vehicle: Klucel (hydroxypropylcellulose) (HPC)) 108 % of control; (endpoint: median survival time, dose: 100.0 mg/kg/injection, schedule: Q01DX009 (ip), vehicle: Klucel (hydroxypropylcellulose) (HPC)) 100 % of control; (endpoint: median survival time, dose: 200.0 mg/kg/injection, schedule: Q01DX009 (ip), vehicle: Klucel (hydroxypropylcellulose) (HPC)) 96 % of control.
